In patent publication US20100216981A1 (Nippon Soda Co., Ltd., priority 2007, published 2010):

T1: 2b (PTGS suppressor) (Tomato aspermy virus, UniProt Q8UYT3 Q8UYT3:1-95)
T1 sequence: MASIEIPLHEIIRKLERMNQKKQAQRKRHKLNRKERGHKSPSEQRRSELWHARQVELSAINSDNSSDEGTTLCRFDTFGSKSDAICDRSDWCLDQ

T2: p19 (PTGS suppressor) (Tomato bushy stunt virus, UniProt P11690 P11690:1-172)
T2 sequence: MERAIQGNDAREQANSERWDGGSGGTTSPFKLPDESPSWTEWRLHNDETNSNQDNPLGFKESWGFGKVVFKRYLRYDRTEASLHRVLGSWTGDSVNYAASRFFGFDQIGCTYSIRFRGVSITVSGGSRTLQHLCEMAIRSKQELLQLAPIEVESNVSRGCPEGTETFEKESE

T3: tat synthetic peptide (arginine-rich portion) (Human immunodeficiency virus, UniProt P69698 SEQ:1-34)
T3 chain: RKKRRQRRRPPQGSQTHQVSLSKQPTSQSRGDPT

B1: biotinylated siRNA 21 bp (dsRNA)
RNA 1: UUGCUCAACAGUAUGGGCAUU
RNA 2: UGCCCAUACUGUUGAGCAAUU

Key:
[1] = target: synthetic peptide of tat (HIV tat) (Human immunodeficiency virus type 1 group M subtype B, UniProt P04610, P77S); assay: Gel shift assay, inhibition of siRNA binding to synthetic peptide of tat; details: compound 100 ppm; synthetic peptide of tat 500 nM
PTGS-SP p19 of TBSV = PTGS-SP p19 of TBSV (Tomato bushy stunt virus, UniProt P11690); assay: Surface plasmon resonance (Biacore) inhibition of siRNA binding to p19; details: read-out: Binding inhibition rate (%) Biacore p19 25 ppm
TAV-2b = TAV-2b (Tomato aspermy virus, UniProt Q8UYT3); assay: Surface plasmon resonance (Biacore) inhibition of siRNA binding to TAV-2b; details: read-out: Binding inhibition rate (%) Biacore TAV2b 25 ppm
2b (PTGS suppressor) = target: T1, 2b (PTGS suppressor); assay: SPR; siRNA on SA chip; 10 mM HEPES pH 7.4, 150 mM NaCl, 3 mM EDTA; 2b about 10 ug/ml; free siRNA 0.1 uM competes (positive control); small molecules inhibit binding; details: tags: FLAG (MBP removed with Factor Xa); label: 3'-biotin on sense strand; siRNA duplex of two 21-mers
p19 (PTGS suppressor) = target: T2, p19 (PTGS suppressor); assay: SPR; siRNA on SA chip; 10 mM HEPES pH 7.4, 150 mM NaCl, 3 mM EDTA; p19 about 10 ug/ml; free siRNA 0.1 uM competes (positive control); small molecules inhibit binding; details: tags: His-tag (pCold I), FLAG; chain copies: 2; label: 3'-biotin on sense strand; siRNA duplex of two 21-mers
[2] = target: T3, tat synthetic peptide (arginine-rich …); assay: EMSA; peptide 500 nM, siRNA 500 uM as printed, 0.005% BSA, 25 C; binding inhibited by small molecules; details: protein: synthetic; tags: chemically synthesised peptide, Biologica Co., 98% purity; label: 3'-biotin on sense strand; siRNA duplex of two 21-mers

Molecule | Binding inhibition rate (%) Gel shift tat 100 ppm [1] | inhibition at 25 ppm (PTGS-SP p19 of TBSV) | inhibition at 25 ppm (TAV-2b) | binding result (2b (PTGS suppressor)) | binding result (p19 (PTGS suppressor)) | binding result [2]
COc1c(OC)c(=O)c1=O [Compound 1] | 10% | 80% | 80% | – | – | –
CC1(C)C(=O)C(C)(C)C1=O [Compound 2] | – | 75% | 0% | – | – | –
CCOC(=O)C1CCCC1=O (centres unmarked) [Compound 3] | – | 0% | 90% | – | – | –
CC(=O)C1CCCC1=O (centres unmarked) [Compound 4] | – | 20% | 90% | – | – | –
O=C1C=CC(=O)C1 [Compound 5] | 100% | 100% | 100% | – | – | –
O=C1CCc2ccccc2C1=O [Compound 6] | 100% | 100% | 100% | – | – | –
O=C1CCSC1 [Compound 9] | 0% | 95% | 0% | – | – | –
O=C1CCCCC1 [Compound 10] | – | 70% | 50% | – | – | –
O=C1CCC(=O)CC1 [Compound 11] | – | 70% | 20% | – | – | –
O=C1C=CC(=O)C=C1 [Compound 12] | 100% | 100% | 95% | – | – | –
O=C1C=C(Cl)C(=O)C(Cl)=C1 [Compound 13] | 100% | – | – | – | – | –
O=C1C=C(Cl)C(=O)C=C1Cl [Compound 14] | 100% | – | – | – | – | –
O=C1C=C(O)C(=O)C=C1O [Compound 15] | 80% | 95% | 100% | – | – | –
COC1=C(OC)C(=O)C(C)=CC1=O [Compound 16] | 0% | 80% | 0% | – | – | –
O=c1c(O)c(O)c(=O)c(=O)c1=O [Compound 17] | – | 100% | 90% | – | – | –
NC1=CC(=O)CCC1 [Compound 18] | 0% | 90% | 80% | – | – | –
Cc1occc(=O)c1O [Compound 19] | 0% | 90% | 50% | – | – | –
O=C1C=CC(=O)c2c(O)ccc(O)c21 [Compound 20] | 100% | 100% | 80% | – | – | –
B1 | – | – | – | binds | binds | binds
